The source made the active and inactive calls. The rule behind the calls is not given here.
Tested on: rodent carcinogenicity bioassays, tumor incidence
Assay: CCRIS carcinogenicity studies
In short: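 NCI-built, expert-reviewed records of carcinogenicity and related test outcomes (mutagenicity, tumor promotion/inhibition) compiled from published and report sources, historical span 1985-2011, not updated.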

Measured: carcinogen call

c1ccc2c(c1)-c1ccc3ccc4cccc5cc-2c1c3c45
active: Species: MOUSE, Strain/Sex: ICR/FEMALE, Route: DERMAL, Tumor Site: Type of Lesion: INTEGUMENTARY SYSTEM (SKIN): PAPILLOMA, CARCINOMA active; positive | Species: MOUSE, Strain/Sex: XVII-NC/Z/MALE, Route: SUBCUTANEOUS, Tumor Site: Type of Lesion: INJECTION SITE: SARCOMA active; positive | Species: RAT, Strain/Sex: OSBORNE-MENDEL/FEMALE, Route: LUNG IMPLANT, Dose: 0, 0.16, 0.83, 4.15 MG IN BEESWAX/TRIOCTANOIN (STUDY DURATION: LIFETIME), Dose: 0, 0.16, 0.83, 4.15 MG IN BEESWAX/TRIOCTANOIN (STUDY DURATION: LIFETIME), Tumor Site: Type of Lesion: LUNG: EPIDERMOID CARCINOMA active; positive

Cc1ccc(N(CC2=NCCN2)c2cccc(O)c2)cc1
active: Species: RAT, Strain/Sex: CRL:CD BR/MALE, FEMALE (65/GROUP), Route: ORAL (GAVAGE), Dose: 10, 50, 150 MG/KG DAILY IN DISTILLED WATER (STUDY DURATION: 101 WK), Dose: 10, 50, 150 MG/KG DAILY IN DISTILLED WATER (STUDY DURATION: 101 WK), Tumor Site: Type of Lesion: BROWN ADIPOSE TISSUE: HIBERNOMA active; positive | Species: RAT, Strain/Sex: CRL:CD BR/MALE, FEMALE (65/GROUP), Route: ORAL (GAVAGE), Dose: 10, 50, 150 MG/KG DAILY IN DISTILLED WATER (STUDY DURATION: 101 WK), Dose: 10, 50, 150 MG/KG DAILY IN DISTILLED WATER (STUDY DURATION: 101 WK), Tumor Site: Type of Lesion: PITUITARY: ADENOMA active; positive

O=C1C2(Cl)C3(Cl)C4(Cl)C(Cl)(Cl)C5(Cl)C3(Cl)C1(Cl)C5(Cl)C24Cl (centres undefined)
active: Species: MOUSE, Strain/Sex: B6C3F1/FEMALE, Route: ORAL, Dose: 20, 40 MG/KG IN DIET, TWA, Tumor Site: Type of Lesion: LIVER: HEPATOCELLULAR CARCINOMA active; positive | Species: MOUSE, Strain/Sex: B6C3F1/MALE, Route: ORAL, Dose: 20, 23 MG/KG IN DIET, TWA, Tumor Site: Type of Lesion: LIVER: HEPATOCELLULAR CARCINOMA active; positive | Species: RAT, Strain/Sex: OSBORNE-MENDEL/FEMALE, Route: ORAL, Dose: 18, 26 MG/KG IN DIET, TWA, Tumor Site: Type of Lesion: LIVER: HEPATOCELLULAR CARCINOMA active; positive | Species: RAT, Strain/Sex: OSBORNE-MENDEL/MALE, Route: ORAL, Dose: 8, 24 MG/KG IN DIET, TWA, Tumor Site: Type of Lesion: LIVER: HEPATOCELLULAR CARCINOMA active; positive

From PubChem BioAssay AID1259411 (Chemical Carcinogenesis Research Information System (CCRIS), 2018)
